Measured values: patent publication US9089526B2, “Pharmaceutical product and analysis model for hormone replacement therapy for women and prevention of some cancers and uterine myomas” (Universidad de Chile, priority 2009, dated 2015)

Assays:
rat uterus [1] = experiment: Modification of estradiol-induced uterine responses in prepubertal female rats, substance given 1 h before estradiol-17β; type: in vivo; conditions: for Estrogen-induced endometrial edema: pretreatment 1 h before estradiol 0.33 mg/kg s.c.
Method: (§1) Prepubertal female rats were treated s.c. with the vehicle (C) (0.3 mL 1:9 ethanol saline), or a phytoestrogenic preparation, followed after one hour by estradiol-17β (E) Merck (0.33 mg/kg b.wt.), or its vehicle. Among the phytoestrogenic compounds used, genistein (G) Sigma (0.5 mg/kg b.wt.), two different concentrations of soybean ethanol extracts (S): 0.06 (Sd) and 0.364 (Sc) mg genistin/kg b.wt., and extracts, decoctions or extract sub-fractions of various plant species. Genistein quantification was based in the indirect valoration of genistein following 2M HCl hydrolysis and genistein quantification by HPLC (45, 46). […] Uteri were excised under ether anesthesia and histologically processed for eosinophil quantification and morphometric analysis of different parameters of estrogen action (22, 34). The following parameters were quantified in the uterus: total uterine eosinophilia (6), percentage of eosinophils according to the distribution in different uterine histological layers and to their degree of degranulation (10, 14); deep endometrial and superficial endometrial edema (47); luminal epithelial, glandular epithelial (34) and myometrial (47) cell hypertrophy, luminal epithelial RNA content (34), and number of mitotic figures for each uterine cell-type.
(§2) Statistics: According to previous studies (14) using the Tukey test of additivity (50), data on some parameters of estrogen stimulation needs to be submitted to logarithmic transformation or to square or cubic root transformation to normalize distribution. Accordingly, the transformations were performed on some of the parameters of estrogen stimulation investigated (14). Transformed and non-transformed data were subjected to further statistical analysis.
(§3) Since multiple comparisons were performed between the different experimental conditions, transformed and non-transformed data (all parameters except eosinophil degranulation and eosinophil distribution between uterine tissue layers) were subjected to the least significant difference a posteriori (LSD) test. The common variance needed for this test was estimated from a one-way unbalanced analysis of variance (ANOVA).
(§4) In uterine eosinophil degranulation and distribution studies, the χ^2 statistic was used to evaluate differences between the proportions.

rat uterus [2] = experiment: Estrogenic (agonist) responses in the uterus of prepubertal female rats, substance alone; type: in vivo; conditions: s.c.
Method: as §1, §2, §3, §4

[3] = system: human MCF-7 mammary cancer cells; experiment: In vitro growth (sulforhodamine B) assay, MCF-7 cells; type: cell-based; conditions: 72 h
Method: (§5) Cell lines. The experimental cell cultures were obtained from American Type Culture Collection (Rockville, Md., USA). MCF-7 and MDA-MB231 cells (estrogen receptor positive and negative respectively breast cancer cells) were grown in Dulbecco's modified Eagle's medium (DMEM) containing 10% FCS, 100 U/ml penicillin, 100 μg/ml streptomycin and 1 mM glutamine. Cells were seeded into 96 well microtiter plates in 100 μl at plating density of 3×10^3 cells/well. After 24 h incubation at 37° C. under a humidified 5% carbon dioxide to allow cell attachment, the cells were washed with phenol red-free and the medium was changed to phenol red-free DMEM supplemented with 4% dextran-charcoal-stripped foetal calf serum (DCFCS). Then the cells were treated with different concentrations of drugs and incubated for 72 h under the same conditions. Stock solution of compounds was prepared in ethanol and the final concentration of this solvent was kept constant at 1%. Control cultures received 1% ethanol alone.
(§6) In vitro growth inhibition assay. The sulforhodamine B assay was used according to the method of Skehan et al. 1990 (48) with some modifications (49). […] Protein-bound stain was solubilized with 100 μl of 10 mM unbuffered Tris base, and the cell density was determined using a […] (wavelength 540 nm). […]

[4] = system: human MDAMB-231 mammary cancer cells; experiment: In vitro growth (sulforhodamine B) assay, MDAMB-231 cells; type: cell-based; conditions: 72 h
Method: as §5, §6

[5] = pretreatment 1 h before estradiol, compared to estradiol alone
[6] = pretreatment 1 h before estradiol, mitoses
[7] = substance alone, absence of estradiol

SMILES: O=c1c(-c2ccc(O)cc2)coc2cc(O)cc(O)c12 [G, genistein]
- Estrogen-induced endometrial edema (rat uterus [1]; 6 h of treatment): antagonizes
- Estrogen-induced endometrial edema (rat uterus [1]; 24 h of treatment): not at 24 h
- Estrogen-induced uterine eosinophilia (rat uterus [1]; pretreatment 1 h before estradiol, 6 and 24 h considered together): mainly at 6 h of treatment
- Estrogen-induced eosinophilia in the endometrial layer only (rat uterus [1]; pretreatment 1 h before estradiol, 6 or 24 h): decrease in eosinophils under estrogen treatment is stronger
- Degranulation of uterine eosinophils in estrogen-treated rats (rat uterus [1]; [5]): decreases the degranulation
- Proportion of uterine eosinophils by location (endometrium/myometrium vs mesometrium) in estrogen-treated rats (rat uterus [1]; [5]): decrease in the proportion of eosinophils located in endometrium with myometrium
- Estrogen-induced cell proliferation in endometrial stroma (rat uterus [1]; [6]): almost completely block
- Estrogen-induced cell proliferation in myometrium (rat uterus [1]; [6]): almost completely block
- Estrogen-induced cell proliferation in uterine luminal epithelium (rat uterus [1]; [6]): almost completely block
- Edema in deep endometrial stroma (rat uterus [2]; 6 h (FIG. 4)): not by G or S
- Proportion of uterine eosinophils located in the mesometrium and in the endometrium with myometrium (rat uterus [2]; 6 h (FIG. 6)): all the eosinophils were in the mesometrium
- Endometrial luminal epithelial cell hypertrophy (rat uterus [2]; 24 h (FIG. 2)): response similar to E
- Endometrial luminal epithelial cell RNA content (rat uterus [2]; 24 h (FIG. 3)): response similar to E
- Cell proliferation (number of mitotic figures) in myometrium (rat uterus [2]; 24 h (FIG. 11)): not by G, Sd or Sc
- Myometrial hypertrophy (rat uterus [2]; uteri excised 24 h after treatment (FIG. 1)): response similar to E
- Cell proliferation of cultured MCF-7 cells [3, 7]: increased
- Cell proliferation of cultured MCF-7 cells ([3]; substance plus estradiol): cell proliferation induced by genistein plus estradiol is higher than that of estradiol alone
- Cell proliferation of cultured MDAMB-231 cells [4, 7]: slightly inhibited
- Cell proliferation of cultured MDAMB-231 cells ([4]; substance plus estradiol): in association with estradiol the inhibitory effect is stronger than that of genistein alone
